# “Also recorded” adds a separate entry of the source.
# Tested on: C57BL/6 male mice with hepatic I/R injury
# Assay: Model of partial hepatic I/R injury in mice
# Type: in vivo, mouse
# Procedure: Pathogen-free 8 to 10-week old C57BL/6 male mice (Orient Bio, Seoul, Korea) were kept under a 12-h light/dark cycle with controlled humidity of 50% at 22 °C, and had free access to food and water. Hepatic I/R injury was created using the following method.[15] Mice were anaesthetised with ketamine (100 mg/kg) and xylazine (10 mg/kg) by intraperitoneal injection. A midline incision was performed, and an atraumatic clip was placed across the portal vein, hepatic artery, and bile duct just above the right branch. Blood flow was interrupted to the left lateral and median lobes, which represent approximately 70% of the total blood supply to the liver. The liver was kept moist with a gauze soaked in saline, and body temperature was maintained at 37 °C with a warm blanket throughout ischaemia. After 60 min of partial hepatic ischaemia, the clip was removed to initiate reperfusion. The sham mice underwent the same operation without vascular occlusion. After the desired time period of reperfusion, the mice were euthanised by exsanguination under anaesthesia and serum samples were collected. The left lateral and median lobes of the liver were collected and stored at −80 °C until further analysis, or were immediately fixed in 10% formalin. All animal experiments were performed in accordance with the Guide for the Care and Use of Laboratory Animals published by the US National Institutes of Health (NIH Publication No. 85–23, revised 2011). The study protocol was approved by the Institutional Animal Care and Use Committee of Jeonbuk National University (permit number: JBNU-2019–00122).
# Alanine aminotransferase (ALT) and aspartate aminotransferase (AST) in serum (Asan Pharm, Seoul, Korea), glutathione (GSH, Arbour Assays, Ann Arbour, MI, USA), malondialdehyde (MDA, ab118970, Abcam, Cambridge, UK) in liver tissues, and lactate dehydrogenase (LDH, Biovision, Milpitas, CA, USA) in culture medium were analysed using specific kits. Serum levels of IL-1β, IL-6, TNF-α, and CCL-2 were detected using ELISA kits (all from Invitrogen).
# Total RNA was extracted from frozen liver tissues or primary hepatocytes using TRIzol reagent (Invitrogen). RNA was treated with isopropanol, dried using 70% ethanol, and dissolved in diethyl pyrocarbonate-treated distilled water. First-strand cDNA was generated using the random hexamer primer provided in the first-strand cDNA synthesis kit (Applied Biosystems, Foster City, CA, USA). Specific primers were designed using PrimerBank (https://pga.mgh.harvard.edu/primerbank, Table 1). qPCR reactions were performed in a final volume of 10μ L containing 10 ng reverse-transcribed total RNA, 200 nM forward and reverse primers, and PCR master mixture. qPCR was performed in 384-well plates using an ABI Prism™ 7900HT Sequence Detection System (Applied Biosystems).
# Nuclear and cytoplasmic fractions were prepared using the NE-PER Nuclear and Cytoplasmic Extraction kit (Thermo Fisher Scientific, Waltham, MA, USA). Tissue homogenates or cell lysates (15 μg) were separated by 6–14% SDS-PAGE and transferred to PVDF membranes. After blocking with 5% skim milk, blots were probed with primary antibodies against: PAK4 (G222), p-PAK4 (S474), p-IKKβ (S176/180), p-IκBα (S32), p-p65 (S536), cleaved caspase-3 (Asp175), Bax (Cell Signalling Technology, Beverly, MA, USA), GAPDH (A531), lamin B1(L75), Bcl2(P65), NQO1 (F252) (Bioworld Technology, St Louis Park, MN, USA), NF-κB p65 (C-20), IKBα (H-4), IKKβ (10A9B6) (Santa Cruz Biotechnology, Dallas, TX, USA), Nrf2 (Proteintech, Rosemont, IL, USA), HO-1 (Enzo Life Sciences, Farmingdale, New York, USA), and p-Thr (Merck KGaA, Darmstadt, Germany). For co-immunoprecipitations, 600 μg protein was incubated with anti-Nrf2 antibodies (Proteintech, Sankt Leon-Rot, Germany) overnight at 4 °C followed by protein G agarose for 2 h at 4 °C. Blots were probed with antibodies against PAK4, Nrf2, or p-Thr. Immunoreactive bands were detected with a Las-4000 imager (GE Healthcare Life Science, Pittsburgh, PA, USA). […]
# [1] = 50 mg/kg intraperitoneal before and during I/R, 1 h ischaemia, 6 h or 24 h reperfusion, vs I/R group
compound,measurement,setting,value
"Cc1nn(-c2cccc(C#CC3(O)CCCCC3)c2)c2ncnc(N)c12 [Compound 14b, 3-(4-Amino-3-methylpyrazolo[3,4-d]pyrimidin-1-yl)phenylethynylcyclohexan-1-ol]",Serum ALT level,[1],significantly decreased
same,Serum AST level,[1],significantly decreased
same,"Inflammatory cell infiltration (F4/80-positive macrophages, Ly6G-positive neutrophils) in liver","50 mg/kg, 24 h after reperfusion, listed as SPA7012",decreased; also recorded: drastic reduction
same,"Cytokine production (TNF-α, IL-1β, IL-6, CCL-2; serum protein and liver mRNA)","50 mg/kg, I/R injured mice",decreased
same,Phosphorylation levels of IKKβ and p65 in liver,"50 mg/kg, Western blotting",substantially decreased
same,Protein levels of IκBα in liver,"50 mg/kg, Western blotting",increased
same,Nuclear level of Nrf2 in I/R injured liver tissues,"50 mg/kg, Western blotting of nuclear extracts, listed as SPA7012",considerably increased
same,4-HNE-positive cells in liver tissues,"50 mg/kg, vs I/R group",significantly lower
same,Area of necrosis in liver (H&E),"50 mg/kg, vs I/R group",significantly smaller
same,Hepatic levels of GSH,"50 mg/kg, vs I/R group",significantly higher
same,MDA level,"50 mg/kg, vs I/R group",significantly lower
same,TUNEL-positive apoptotic cells in liver tissues,"50 mg/kg, vs I/R group",significant reduction
same,"Total- and phospho-protein levels of PPARγ, PTEN, Akt, and GSK-3β","following SPA7012 treatment, data not shown",no changes
